According to patent US20250339542A1, “CONVERSION OF A BIOLOGICALLY SILENT MIRNA BINDING SMALL MOLECULE TO AN MIRNA DEGRADER” (University of Florida Research Foundation, Incorporated, priority 2020, published 2025):
“And” between values parts separate entries of the source, which are not always exact repeats. Identical values can stand only once. “Also recorded” adds a separate entry of the source.

Key:
miR-155 [1] = assay: RT-qPCR of miR-155 levels in HUVECs; type: cell-based, human
Method: (§1) Tissue Culture. MDA-MB-231 cells were obtained from ATCC (HTB-26) and cultured in RPMI medium with […] & 25 mM HEPES (Corning) supplemented with 10% FBS (sigma). MCF-10a cells were obtained from ATCC(CRL-10317) and cultured in DMEM/F12 50/50 with glutamine and 15 mM HEPES(Corning) containing 20% FBS(Sigma), 1×Antibiotic-Antimycotic(Corning), 20 ng/mL of human epidermal growth factor(Pepro Tech Inc.), 100 μg/mL of insulin and […] of hydrocortisone (Pfizer &Bauer). HUVECs were cultured in EGM (Lonza) made using the EGM-2 bullet kit (Lonza) per the manufacturers protocol.
(§2) RT-qPCR analysis for Mature, Primary and Precursor miRNAs and mRNA levels. After compound treatment for the indicated time (MDA-MB-231 48 h and HUVECs 24 h), total RNA was extracted using the Zymo Quick-RNA mini prep kit according to the manufacturers protocol. Reverse Transcription (RT) for microRNAs and pri- and pre-miR-155 were done on 200 ng of RNA using the miScript II RT kit (Qiagen) according to the manufacturer's protocol. The mRNAs were done using QScript (Quanta Bio) on 200 ng of total RNA according to the manufacturer's protocol. RT-qPCR was done as mentioned above. The obtained data was analyzed by using the ΔΔCt method as described previously. For the washout experiment, MDA-MB-231 cells were treated with 3 for 48 h. Then the media was changed with fresh growth medium without compound and the cells incubated for 12, 24 and 36 h with RNA harvested and pre-miR-155 levels analyzed as described above.

miR-155 [2] = assay: RT-qPCR of mature miR-155 levels in MDA-MB-231 cells; type: cell-based, human; conditions: 48 h
Method: as §1, §2
(§3) RT-qPCR analysis for Mature, Primary and Precursor miRNAs and mRNA levels part. Relative RNA expression was determined by using ΔΔCt method with 18S rRNA as an internal control. Normalized fold change was calculated with the equation as below: […]

RNase L / pre-miR-155 = molecular target: T1, RNase L / pre-miR-155 (Homo sapiens, UniProt Q05823); assay: Immunoprecipitation of RNase L from MDA-MB-231 cells, RT-qPCR of pre-miR-155; type: cell-based; conditions: 100 nM, 48 h, relative to untreated
T1 construct: RNase L was immunoprecipitated from MDA-MB-231 cells; endogenous in cells; host or cells: MDA-MB-231
T1 sequence (Q05823 1-741): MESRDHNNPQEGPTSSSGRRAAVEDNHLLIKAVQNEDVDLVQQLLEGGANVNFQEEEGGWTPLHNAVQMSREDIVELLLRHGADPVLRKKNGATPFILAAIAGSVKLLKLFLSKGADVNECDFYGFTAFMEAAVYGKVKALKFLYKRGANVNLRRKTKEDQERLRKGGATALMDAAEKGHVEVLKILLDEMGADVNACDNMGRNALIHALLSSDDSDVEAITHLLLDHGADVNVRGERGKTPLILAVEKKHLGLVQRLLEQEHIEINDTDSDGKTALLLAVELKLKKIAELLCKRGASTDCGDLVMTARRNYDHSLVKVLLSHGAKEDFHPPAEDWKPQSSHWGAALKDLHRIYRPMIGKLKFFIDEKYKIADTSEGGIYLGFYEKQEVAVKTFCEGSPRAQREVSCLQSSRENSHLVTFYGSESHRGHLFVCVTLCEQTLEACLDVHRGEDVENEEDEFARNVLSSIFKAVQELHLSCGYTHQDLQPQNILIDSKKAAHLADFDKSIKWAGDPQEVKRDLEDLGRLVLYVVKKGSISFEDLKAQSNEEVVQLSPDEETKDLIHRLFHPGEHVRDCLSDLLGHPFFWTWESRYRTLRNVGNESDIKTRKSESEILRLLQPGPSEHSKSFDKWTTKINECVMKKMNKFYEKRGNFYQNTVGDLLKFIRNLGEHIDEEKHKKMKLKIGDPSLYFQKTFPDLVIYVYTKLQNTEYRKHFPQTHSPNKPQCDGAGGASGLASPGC
Method: Immunoprecipitation of RNase L. RNase L immunoprecipitation is performed according to published procedures.^16 Briefly, at […], MDA-MB-231 cells were treated with vehicle, 100 nM of 3 or 5 for 48 h. Cells were then washed with DPBS, and detached by scraper. The collected cells were lysed in 100 L of M-PER buffer(78503, Thermo Fisher) containing 1× Protease Inhibitor Cocktail III for Mammalian Cells (Research Products International Corp.) and 80 U of RNaseOUT Recombinant Ribonuclease Inhibitor (Invitrogen) per the manufacture's protocol. The samples were centrifuged at 13,000×g at 4° C. Protein concentration was determined by using a Pierce Mico BCA Protein Assay kit (Fisher Scientific). Approximately 200 g of the total protein per sample was incubated at 4° C. overnight with Dynabeads Protein A (Life Technologies) bound to either RNase L mouse primary antibody (Santa Cruz Biotechnology: sc-74405) or j-actin mouse primary antibody (Cell signaling: 8H10D10). Beads were then washed with 1× DPBST (1× DPBS supplemented with 0.02% Tween-20) for 3 times, after which RNA was extracted by using a miRNeasy Mini Kit (Qiagen) per the manufacturer's instructions. RT-qPCR was performed the same as mentioned above.

pre-miR-155 [3] = assay: RT-qPCR of pre-miR-155 levels in HUVECs; type: cell-based, human
Method: as §1, §2

HUVECs = assay: Angiogenesis: tubule network formation of HUVECs on Matrigel; type: cell-based, human
Method: Lastly, compound 3's (Formula I) effect on VHL protein and angiogenesis in HUVECs was studied. […] Since upregulation of VHL should attenuate the angiogenic capacity of HUVECs, their ability to differentiate into tubule networks on Matrigel as previously described was measured.^24 Treatment with compound 3, caused a decrease of 29% (100 vs. 140 branch points) in tubule branching for differentiated HUVECs. Although small, this decrease does correspond with suppression of miR-155 and de-repression of VHL, which is in line with the initial study by Kong et al. who observed a 42% reduction in branching points (FIG. 21I).^38 Taken together compound 3 degrades miR-155 in HUVECs with low nanomolar activity and is able to attenuate their angiogenic capacity.

Von-Hippel Lindau (VHL) = assay: Western blot of VHL in HUVECs; type: cell-based, human
[4] = test system: RNA isoforms of miR-155 that contain the 5′GAU/3′C_A binding site; assay: RT-qPCR of RNA isoforms of miR-155 (same binding site) in MDA-MB-231 cells; type: cell-based, human; conditions: 48 h
Method: Next, the selectivity of 3 to inhibit miR-155 out of 373 expressed miRNAs in MDA-MB-231 cell was assessed. […] A comparison of their structures to the aforementioned list of miRNAs with potential RIBOTAC sites identified that all except pre-miR-101-1 and pre-let-7g have a RIBOTAC targetable motif.
as §2

MDA-MB-231 cells = assay: Migration assay of MDA-MB-231 cells; type: cell-based; conditions: Homo sapiens, compound 3 at 1×10^−7 M, read-out: inhibition of cellular migration
Method: (§4) Migration Assay: The Migration assay was performed the same as previous publication^15. Briefly, MDA-MB-231 cells were serum starved for 12 h in RPMI medium without FBS. Then, samples of 50,000 cells treated with vehicle or 155-Ribotac in serum starved medium were seeded into Hanging cell culture Inserts with 8.0 µm pores for 24 well plate with complete growth medium in the bottom well. After 20 h, the medium was aspirated and the inserts and the bottom wells were washed with DPBS twice. Then to the bottom well were added 400 µL of 4% paraformaldehyde. After fixing for 20 min. The inserts and wells were washed with DPBS twice and then treated with 400 µL of 0.1% crystal violet solution. After 20 min, the wells and inserts were washed with water twice and PBS once. Cotton swabs were used to remove the cells inside the inserts. Migration inserts were completely air-dried and imaged by using a Leica DMI3000 B upright fluorescent microscope.

pri-miR-155 = assay: RT-qPCR of pri-miR-155 levels in MDA-MB-231 cells; type: cell-based, human
Method: as §1
RT-qPCR analysis for Mature, Primary and Precursor miRNAs and mRNA levels. After compound treatment for the indicated time (MDA-MB-231 48 h and HUVECs 24 h), total RNA was extracted using the Zymo Quick-RNA mini prep kit according to the manufacturers protocol. […] The obtained data was analyzed by using the ΔΔCt method as described previously. […] Then the media was changed with fresh growth medium without compound and the cells incubated for 12, 24 and 36 h with RNA harvested and pre-miR-155 levels analyzed as described above.
as §3

MCF-10a cells = assay: Migration assay of transfected MCF-10a cells; type: cell-based; conditions: mock transfected MCF-10a cells
Method: Lastly, the dependence of migration on miR-155 and the activity of 3 on the presence of the 5′GAU/3′C_A bulge was assessed. MCF-10a cells, a model of healthy breast epithelium, were transfected with wild type pre-miR-155 and mutant pre-miR-155, where the 5′GAU/3′C_A bulge is mutated to an AU base pair. […] Treatment with 3 reduced migration of MCF-10a cells transfected with WT pre-miR-155 by 60%, in contrast to mutant miR-155 expressing cells in which the compound's binding site has been ablated, the migration of which was unaffected by 3 treatment.
as §4, with “Migration inserts were completely air-dried and imaged by using a Leica DMI3000 B upright fluorescent microscope.” left out

pre-miR-155 [5] = assay: RT-qPCR of pre-miR-155 levels in MDA-MB-231 cells; type: cell-based, human
Method: as §1, §2, §3

SOCS1 = assay: Western blot of SOCS1 in MDA-MB-231 cells; type: cell-based, human
Method: Western-Blotting. MDA-MB-231 cells were plated in 6 well plates at 150,000 cells/well. And at 50% confluency, cells were treated with Vehicle or 155-ribotac for 48 h. Then the medium was removed and washed with 1× DPBS. The cells were trypsinized and pelleted. The pellets were washed twice with 1× DPBS and then lysed in 50 L of M-PER (Thermo Fisher) buffer with 1× protease inhibitor cocktail (Roche) on ice for 20 min. The lysate was centrifuged at 4° C. for 15 min and the supernatants were collected. Protein concentration were determined using a Pierce Mico BCA Protein Assay kit (Fisher Scientific) according to the manufacturer's protocol. Approximately 20 g of total protein for each sample was resolved on a 10% SDS-polyacrylamide gel and the protein were then transferred to a PVDF membrane. […] After washing with 1× TBST for 15 min for 3 times, SOCS1 protein expression was detected by using SuperSignal West Pico Chemiluminescent Substrate (Pierce Biotechnology).
The membrane was then stripped by Stripping Buffer (200 mM glycine with 0.1% SDS, pH 2.2) for 90 min at RT and then the membrane was washed with 1× TBST for 10 min for 3 times. […] The membrane was then washed with 1× TBST for 10 min for 3 times and j-actin expression level was detected. ImageJ software was used to quantify the protein bands.

Structure (SMILES) | effect on miR-155 levels (miR-155 [1]) | effect on miR-155 levels / miR-155 biogenesis (miR-155 [2]) | enrichment of pre-miR-155 in RNase L pulldown fractions (RNase L / pre-miR-155) | effect on pre-miR-155 levels (pre-miR-155 [3]) | inhibition of angiogenic capacity / decrease in tubule branching (HUVECs; differentiated HUVECs on Matrigel) | branch points (HUVECs; differentiated HUVECs, treated (vs. 140 untreated)) | lowest concentration showing reduction of miR-155 levels (miR-155 [1]) [nM] | inhibition at 0.001 µM (miR-155 [1]; Homo sapiens, HUVEC, 1×10^−9 M) [%] | de-repression of VHL (Von-Hippel Lindau (VHL); 10 nM) [%] | de-repression of VHL (Von-Hippel Lindau (VHL); 1×10^−7 M) [fold] | effect on RNA isoforms of miR-155 [4] | inhibition at 0.1 µM (MDA-MB-231 cells) [%] | degradation of the primary transcript (pri-miR-155) (pri-miR-155) [%] | effect on migration (MCF-10a cells) | degradation of pre-miR-155 (pre-miR-155 [5]; MDA-MB-231 cells, 1×10^−7 M, 48 h) [%] | degradation of pre-miR-155 (pre-miR-155 [5]; MDA-MD-231 and/or HUVEC cells, 0.1 micromolar, summary) [%] | de-repression of SOCS1 (SOCS1) [%] | upregulation of SOCS1 (SOCS1) [fold] | lowest concentration showing cleavage of pre-miR-155 (pre-miR-155 [3]) [nM] | inhibition at 0.001 µM (pre-miR-155 [3]; Homo sapiens, HUVEC, 1×10^−9 M) [%]
CCOC(=O)C1=C(Nc2ccccc2)S/C(=C\c2ccc(O)c(OCCOCCOCCOCCNC(=O)CCc3c(C)n(-c4c(C(C)C)cccc4C(C)C)c[n+]3-c3c(C(C)C)cccc3C(C)C)c2)C1=O [Compound 5] | no effect | no effect; also recorded: does not inhibit | no enrichment | no effect |  |  |  |  |  |  |  |  |  |  |  |  |  |  |  | 
CCOC(=O)C1=C(Nc2ccccc2)S/C(=C\c2ccc(OCCOCCOCCOCCNC(=O)CCc3c(C)n(-c4c(C(C)C)cccc4C(C)C)c[n+]3-c3c(C(C)C)cccc3C(C)C)c(O)c2)C1=O [Compound 3] |  |  |  |  | 20% and 29% | 100 | ≤ 1 | 50 | 50 | 1.5 | no effect | 50 | 43 | inactive | 60 | ≥ 60 | 50 | 1.6 | ≤ 1 | 50
